{
  "source": "patent US20260077056A1",
  "about": "“LINKER-PAYLOAD COMPOUND, CONJUGATES AND APPLICATIONS THEREOF” (priority 2022, published 2026)",
  "key": {"[1]": {"test_system": "HER2 high-expressing cancer cells NCI-N87", "experiment": "Cytotoxicity assay (CellTiter-Glo cell viability), NCI-N87", "type": "cell-based, human", "conditions": "for IC50: Homo sapiens, NCI-N87, 96 h, 96 h treatment", "protocol": "(§1) Cytotoxicity assays were performed using HER2 high-expressing cancer cells NCI-N87 (FIG. 1) and SK-BR-3 (FIG. 2), as well as a HER2 negative cell line MDA-MB-468 (FIG. 3) to analyze the effect of conjugates on tumor cell proliferation. The tested articles included conjugates EC302-2-4-1-1 and EC301-2-1-1-1, and a small molecule eribulin (structure is depicted above). In brief, 5000 cells were plated in 96-well plates, and cells were able to attach overnight. Cells were treated with indicated drugs with various concentrations for 96 h. Cell viabilities were examined by CellTiter-Glo® Luminescent Cell Viability Assay, and percentage of cell viability was calculated.\nas §1, with “4)” for “1)”, “5),” for “2),”, “6)” for “3)”, “The tested articles included conjugates EC302-2-4-1-1 and EC301-2-1-1-1, and a small molecule eribulin (structure is depicted above).” left out"}, "[2]": {"test_system": "FGFR3 negative cancer cell MCF-7", "experiment": "Cytotoxicity assay (CellTiter-Glo cell viability), MCF-7", "type": "cell-based", "conditions": "96 h", "protocol": "(§2) Cytotoxicity assays were performed using FGFR3 high-expressing cancer cells RT112/84 and RT4, FGFR3 negative cancer cell MCF-7 (FIG. 7) to analyze the effect of conjugates on tumor cell proliferation. The tested articles included conjugate EC302-2-4-1-2, and a small molecule eribulin (structure is depicted above). In brief, 2000 cells (RT112/84) or 5000 cells (RT4 or MCF-7) were plated in 96-well plates, and cells were able to attach overnight. Cells were treated with indicated drugs with various concentrations for 96 h. Cell viabilities were examined by CellTiter-Glo® Luminescent Cell Viability Assay, and percentage of cell viability was calculated."}, "[3]": {"test_system": "HER2 high-expressing cancer cells SK-BR-3", "experiment": "Cytotoxicity assay (CellTiter-Glo cell viability), SK-BR-3", "type": "cell-based", "conditions": "for IC50: Homo sapiens, SK-BR-3, 96 h, 96 h treatment", "protocol": "as §1\nas §1, with “4)” for “1)”, “5),” for “2),”, “6)” for “3)”, “The tested articles included conjugates EC302-2-4-1-1 and EC301-2-1-1-1, and a small molecule eribulin (structure is depicted above).” left out"}, "[4]": {"test_system": "FGFR3 high-expressing cancer cells RT4", "experiment": "Cytotoxicity assay (CellTiter-Glo cell viability), RT4", "type": "cell-based", "conditions": "RT4, FGFR3-positive; 96 h", "protocol": "as §2"}, "[5]": {"test_system": "HER2 negative cell line MDA-MB-468", "experiment": "Cytotoxicity assay (CellTiter-Glo cell viability), MDA-MB-468", "type": "cell-based", "conditions": "for IC50: Homo sapiens, MDA-MB-468, 96 h, 96 h treatment", "protocol": "as §1, with “The tested articles included conjugates EC302-2-4-1-1 and EC301-2-1-1-1, and a small molecule eribulin (structure is depicted above).” left out\nas §1, with “4)” for “1)”, “5),” for “2),”, “6)” for “3)”, “The tested articles included conjugates EC302-2-4-1-1 and EC301-2-1-1-1, and a small molecule eribulin (structure is depicted above).” left out"}, "[6]": {"test_system": "FGFR3 high-expressing cancer cells RT112/84", "experiment": "Cytotoxicity assay (CellTiter-Glo cell viability), RT112/84", "type": "cell-based", "conditions": "RT112/84, FGFR3-positive; 96 h", "protocol": "as §2"}},
  "data": [
    {"smiles": "C=C1C[C@@H]2CC[C@@]34C[C@H]5O[C@H]6[C@@H](O3)[C@H]3O[C@H](CC[C@@H]3O[C@H]6[C@H]5O4)CC(=O)C[C@@H]3[C@@H](OC)[C@@H](C[C@H](O)CN)O[C@H]3C[C@H]3O[C@@H](CC[C@@H]1O2)C[C@@H](C)C3=C", "note": "[Eribulin]", "values": [
      {"measurement": "cell proliferation-inhibitory effect, in words", "setting": "[1]; Effect Example 1, NCI-N87, HER2 high", "result": "sensitive"},
      {"measurement": "IC50", "setting": "[1]; Effect Example 1, Table 4", "result": 0.448, "unit": "nM"},
      {"measurement": "IC50", "setting": "[1]; Effect Example 2, Table 5", "result": 0.501, "unit": "nM"},
      {"measurement": "cytotoxicity, in words", "setting": "[2]", "result": "sensitive"},
      {"measurement": "cell proliferation-inhibitory effect, in words", "setting": "[3]; Effect Example 1, SK-BR-3, HER2 high", "result": "sensitive"},
      {"measurement": "IC50", "setting": "[3]; Effect Example 1, Table 4", "result": 0.298, "unit": "nM"},
      {"measurement": "IC50", "setting": "[3]; Effect Example 2, Table 5", "result": 0.211, "unit": "nM"},
      {"measurement": "effect on cell proliferation, in words", "setting": "[4]", "result": "sensitive"},
      {"measurement": "cytotoxicity, in words", "setting": "[5]; Effect Example 1, MDA-MB-468, HER2 negative", "result": "sensitive"},
      {"measurement": "IC50", "setting": "[5]; Effect Example 1, Table 4", "result": 0.211, "unit": "nM"},
      {"measurement": "IC50", "setting": "[5]; Effect Example 2, Table 5", "result": 0.094, "unit": "nM"},
      {"measurement": "effect on cell proliferation, in words", "setting": "[6]", "result": "sensitive"}
    ]}
  ]
}
